The text below walks through data of ChEMBL document CHEMBL1153577, “2D- and 3D-QSAR studies on 54 anti-tumor Rubiaceae-type cyclopeptides” (Eur J Med Chem, 2009).

The structures appear in SMILES notation.

For the assay, the system named is P388. Nature of the assay: Cytotoxicity against mouse P388 cell. The note with it: for IC50: Mus musculus, P388. The class given is functional, cell-based.

The molecule `COC(=O)CC[C@@H]1NC(=O)[C@@H](C)NC(=O)[C@@H]2Cc3ccc(OC)c(c3)Oc3ccc(cc3)C[C@@H](C(=O)N2C)N(C)C(=O)[C@H](C)NC(=O)[C@H](Cc2ccc(OC)cc2)N(C)C1=O` showed an IC50 of 58.9 nM.

`C[C@@H]1NC(=O)[C@@H](C)NC(=O)[C@@H]2Cc3cccc(c3)Oc3ccc(cc3)C[C@@H](C(=O)N2C)N(C)C(=O)[C@H](C)NC(=O)[C@H](Cc2ccccc2)N(C)C1=O` gave an IC50 of 525 nM. Against the preceding molecule, the IC50 is about 8.9-fold higher. On to `COc1ccc(C[C@H]2C(=O)N[C@@H](C)C(=O)N(C)[C@H]3Cc4ccc(cc4)Oc4cc(ccc4OC)C[C@@H](C(=O)N[C@H](C)C(=O)N4CCC[C@H]4C(=O)N2C)N(C)C3=O)cc1`, for which the 50% inhibitory concentration (IC50) was 100 nM. Same read-out and setting: then `C[C@@H]1NC(=O)[C@@H](C)NC(=O)[C@@H]2Cc3ccc(O)c(c3)Oc3ccc(cc3)C[C@@H](C(=O)N2C)N(C)C(=O)[C@H](C)NC(=O)[C@H](Cc2ccccc2)N(C)C1=O`, with 42.7 nM.

In the case of `COc1ccc(C[C@H]2C(=O)N[C@@H](C)C(=O)N(C)[C@H]3Cc4ccc(cc4)Oc4cc(ccc4OC)C[C@@H](C(=O)N[C@H](C)C(=O)N[C@@H](CCCN=[N+]=[N-])C(=O)N2C)N(C)C3=O)cc1`, the half-maximal inhibitory concentration (IC50) was 35.5 nM.

For `COc1ccc(C[C@H]2C(=O)N[C@@H](C)C(=O)N(C)[C@H]3Cc4ccc(cc4)Oc4cc(ccc4OC)C[C@@H](C(=O)N[C@H](C)C(=O)N[C@@H](CCCO)C(=O)N2C)N(C)C3=O)cc1`, the half-inhibitory concentration (IC50) is 174 nM.

Molecule `COc1ccc(C[C@H]2C(=O)N[C@@H](C)C(=O)N(C)[C@H]3Cc4ccc(cc4)Oc4cc(ccc4OC)C[C@@H](C(=O)N[C@H](C)C(=O)N[C@@H](CCSC)C(=O)N2C)N(C)C3=O)cc1` gave an IC50 of 20.4 nM. The molecule `COc1ccc(C[C@H]2C(=O)N[C@@H](C)C(=O)N(C)[C@H]3Cc4ccc(c(O)c4)Oc4cc(ccc4O)C[C@@H](C(=O)N[C@H](C)C(=O)N[C@@H](C)C(=O)N2C)N(C)C3=O)cc1` had an IC50 of 9120 nM. `COc1ccc(C[C@H]2C(=S)N[C@@H](C)C(=O)N(C)[C@H]3Cc4ccc(cc4)Oc4cc(ccc4OC)C[C@@H](C(=O)N[C@H](C)C(=O)N[C@@H](C)C(=S)N2C)N(C)C3=O)cc1`: the midpoint of inhibition, the IC50, lay at 1.62 nM. Against the preceding molecule, the IC50 is about 5600-fold lower.

`COc1ccc(C[C@H]2C(=O)N[C@@H](C)C(=O)N(C)[C@H]3Cc4ccc(cc4)Oc4cc(ccc4OC)C[C@@H](C(=O)N[C@H](C)C(=O)N[C@@H](CO)C(=O)N2C)N(C)C3=O)cc1`: the IC50 is 14.1 nM. The same measure, in the same setting: then `COc1ccc(C[C@H]2C(=S)N[C@@H](C)C(=O)N(C)[C@H]3Cc4ccc(cc4)Oc4cc(ccc4OC)C[C@@H](C(=S)N[C@H](C)C(=O)N[C@@H](C)C(=O)N2C)N(C)C3=O)cc1`, with 2.14 nM; and `COc1ccc(C[C@H]2C(=O)N[C@@H](C)C(=O)N(C)[C@H]3Cc4ccc(cc4)Oc4cc(ccc4OC)C[C@@H](C(=O)N[C@H](C)C(=O)N4C(=O)CC[C@H]4C(=O)N2C)N(C)C3=O)cc1`, with 457 nM. `COc1ccc(C[C@H]2C(=O)N[C@@H](C)C(=O)N(C)[C@H]3Cc4ccc(cc4)Oc4cc(ccc4OC)C[C@@H](C(=O)N[C@H](C)C(=O)N[C@@H](C)C(=O)N2C)N(C)C3=O)cc1O`: inhibition was half-maximal at 214 nM (IC50). The same measure, in the same setting: then `COc1ccc(C[C@H]2C(=O)N[C@@H](C)C(=O)N(C)[C@H]3Cc4ccc(cc4)Oc4cc(ccc4OC)C[C@@H](C(=O)N[C@H](C)C(=O)N[C@@H](CSC(C)=O)C(=O)N2C)N(C)C3=O)cc1`, with 9.77 nM; and `COC(=O)C[C@@H]1NC(=O)[C@@H](C)NC(=O)[C@@H]2Cc3ccc(OC)c(c3)Oc3ccc(cc3)C[C@@H](C(=O)N2C)N(C)C(=O)[C@H](C)NC(=O)[C@H](Cc2ccc(OC)cc2)N(C)C1=O`, with 41.7 nM; and `COc1ccc(C[C@H]2C(=O)N[C@@H](C)C(=O)N(C)[C@H]3Cc4ccc(cc4)Oc4cc(ccc4OC)C[C@@H](C(=O)N[C@H](C)C(=O)N[C@@H](CCO)C(=O)N2C)N(C)C3=O)cc1`, with 60.3 nM. Still for that read-out and setting: then `C=Cc1ccc(C[C@H]2C(=O)N[C@@H](C)C(=O)N(C)[C@H]3Cc4ccc(cc4)Oc4cc(ccc4OC)C[C@@H](C(=O)N[C@H](C)C(=O)N[C@@H](C)C(=O)N2C)N(C)C3=O)cc1`, with 17 nM. Regarding `COc1ccc(C[C@H]2C(=O)N[C@@H](C)C(=O)N(C)[C@H]3Cc4ccc(cc4)Oc4cc(ccc4OC)C[C@@H](C(=O)N[C@H](C)C(=O)N[C@@H](CC(=O)O)C(=O)N2C)N(C)C3=O)cc1`, the IC50 was 1200 nM.

`COc1ccc(C[C@H]2C(=O)N[C@@H](C)C(=O)N(C)[C@H]3Cc4ccc(cc4)Oc4cc(ccc4OC)C[C@@H](C(=O)N[C@H](C)C(=O)N[C@@H](CC=O)C(=O)N2C)N(C)C3=O)cc1` gave an IC50 of 33.9 nM. Compared with the last molecule, the IC50 is about 35-fold lower.

Consider `COc1ccc(C[C@H]2C(=O)N[C@@H](C)C(=O)N(C)[C@H]3Cc4ccc(c(O)c4)Oc4cc(ccc4OC)C[C@@H](C(=O)N[C@H](C)C(=O)N[C@@H](C)C(=O)N2C)N(C)C3=O)cc1` (stereo in doubt; 39), for which the half-maximal inhibitory concentration (IC50) is 4790 nM.

For the molecule `COc1ccc(C[C@@H]2NC(=O)[C@H](C)NC(=O)[C@@H](C)NC(=O)[C@@H]3Cc4ccc(OC)c(c4)Oc4ccc(cc4)C[C@@H](C(=O)N3C)N(C)C(=O)[C@H](C)NC2=O)cc1`, half-maximal inhibition (IC50) required 120 nM. Where the note is “p388”, `COc1ccc(C[C@H]2C(=O)N[C@@H](C)C(=O)N(C)[C@H]3Cc4ccc(c(O)c4)Oc4cc(ccc4OC)C[C@@H](C(=O)N[C@H](C)C(=O)N[C@@H](C)C(=O)N2C)N(C)C3=O)cc1` (stereo in doubt; 40) yielded a pIC50 of 5.24. Turning to `CCC[C@@H]1NC(=O)[C@@H](C)NC(=O)[C@@H]2Cc3ccc(OC)c(c3)Oc3ccc(cc3)C[C@@H](C(=O)N2C)N(C)C(=O)[C@H](C)NC(=O)[C@H](Cc2ccc(OC)cc2)N(C)C1=O`, the IC50 is 13.8 nM. This counts as double-digit nanomolar. The molecule `C=CC[C@@H]1NC(=O)[C@@H](C)NC(=O)[C@@H]2Cc3ccc(OC)c(c3)Oc3ccc(cc3)C[C@@H](C(=O)N2C)N(C)C(=O)[C@H](C)NC(=O)[C@H](Cc2ccc(OC)cc2)N(C)C1=O` showed an IC50 of 38.9 nM. On the same count and under the same terms, then `CCc1ccc(C[C@H]2C(=O)N[C@@H](C)C(=O)N(C)[C@H]3Cc4ccc(cc4)Oc4cc(ccc4OC)C[C@@H](C(=O)N[C@H](C)C(=O)N[C@@H](C)C(=O)N2C)N(C)C3=O)cc1`, with 9.33 nM. On the same count and under the same terms, then `COc1ccc(C[C@H]2C(=O)N[C@@H](C)C(=O)N(C)[C@H]3Cc4ccc(cc4)Oc4cc(ccc4OC)C[C@@H](C(=O)N[C@H](C)C(=O)N[C@@H](CCC(=O)O)C(=O)N2C)N(C)C3=O)cc1`, with 219 nM.

Take `COc1ccc(C[C@H]2C(=O)N[C@@H](C)C(=O)N(C)[C@H]3Cc4ccc(cc4)Oc4cc(ccc4OC)C[C@@H](C(=O)N[C@H](C)C(=O)N[C@@H](CS)C(=O)N2C)N(C)C3=O)cc1`: the half-inhibitory concentration (IC50) was 363 nM. In turn, `COc1ccc(C[C@H]2C(=O)N[C@@H](C)C(=O)N(C)[C@H]3Cc4ccc(cc4)Oc4cc(ccc4OC)C[C@@H](C(=O)N[C@H](C)C(=O)N[C@@H](CCCCO)C(=O)N2C)N(C)C3=O)cc1` gave an IC50 of 219 nM. Turning to `COc1ccc(C[C@H]2C(=O)N[C@@H](C)C(=O)N(C)[C@H]3Cc4ccc(cc4)Oc4cc(ccc4OC)C[C@@H](C(=O)N[C@H](C)C(=O)NC4(SCCS4)C(=O)N2C)N(C)C3=O)cc1`, the midpoint of inhibition, the IC50, lay at 631 nM.
